# Tests used:
# 5-HT1A receptor = target: T1, 5-HT1A receptor (Rattus norvegicus, UniProt P19327); test: Screening: competitive binding test to 5-HT1A receptor using [3H]-8-OH-DPAT, rat hippocampi membrane protein; settings: [3H]-8-OH-DPAT 1.28 nM; for inhibition at 10 µM / inhibition at 0.1 µM: read-out: Inhibition percent (I %), competitive binding to 5-HT1A receptor
# T1 construct: the content of 5-HT1A receptor extracted from rat hippocampi was 5.5 mg/ml; from tissue; host or cells: Wistar rat hippocampus, membrane preparation
# T1 sequence (P19327 1-422): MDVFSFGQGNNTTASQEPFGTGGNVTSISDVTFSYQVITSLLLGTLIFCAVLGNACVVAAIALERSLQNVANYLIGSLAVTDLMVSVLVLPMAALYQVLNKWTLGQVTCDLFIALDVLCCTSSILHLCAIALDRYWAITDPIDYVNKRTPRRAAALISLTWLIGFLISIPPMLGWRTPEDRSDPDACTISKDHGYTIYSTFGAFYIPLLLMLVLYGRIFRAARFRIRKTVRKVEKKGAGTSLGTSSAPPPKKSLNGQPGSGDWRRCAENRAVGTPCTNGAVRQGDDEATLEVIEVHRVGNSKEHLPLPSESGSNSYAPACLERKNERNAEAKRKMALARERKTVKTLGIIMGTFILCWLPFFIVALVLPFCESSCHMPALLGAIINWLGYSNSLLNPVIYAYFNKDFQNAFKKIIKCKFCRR
# Method: 1.4.1 Screening of YL Series Compounds
# (1) Preparation of Membrane Proteins in Rat Hippocampi
# Wister rats, 220-260 g, female and male, were sacrificed by decapitation and hippocampis were rapidly separated, weighed and to which homogenized in 10 times volume of Tris-HCl buffer solution (50 mM Tris-HCl, 5 mM MgCl2,1 mM EDTA, 0.5% (WN) BSA, 1 mM PMSF, 3 μg/ml proteinase inhibitor, 0.1% NaN3, 0.32M sucrose, pH 7.4) at 15,000 rpm for 30 s, total 5 times. The homogenate was centrifuged under 1000×g for 10 minutes and the supernatant was then centrifuged under 39000×g for 10 minutes. The precipitate was collected, and resuspended with 10 times volume of Tris-HCl buffer solution (pH 7.4) relative to the original weight, then centrifuged under 39000×g for 10 minutes. The precipitate was washed with the same buffer solution, centrifuged under 39000×g for 10 minutes and the precipitate was suspended with the above buffer solution. After sub-packaged (the whole operation procedures were performed under ice bath), the product was stored at −80° C. The protein concentration was measured by Lowrry method.
# 1) In the 5-HT1A receptor binding test, tubes are firstly placed under reaction condition of 25° C.
# 2) To all of the tubes, the receptor proteins extracted from rat hippocampi in an amount of 100 μg were added in sequence.
# 4) To the test tubes, 30 μl of the compound in corresponding concentrations (used for screening: 10^−5, 10^−7, 10^−9M) was added in sequence.
# 6) Tris-HCl buffer solution (50 mM Tris-HCl, 1 mM EDTA, 5 mM MgCl2, 0.1 mM PMSF, 0.1% NaN3, pH 7.4) was supplied to all of the tubes to reach a volume of 300 μl.
# 7) The reaction was performed at 25° C. for 1 h.
# 8) Then samples were applied to 49-type glass fibre filter, vacuum suction filtered, then washed three times with 2 ml ice-cold Tris-HCl buffer solution (50 mM Tris-HCl buffer solution, 1 mM EDTA, 5 mM MgCl2, 1 mM PMSF, 0.1% NaN3, 3 μg/ml proteinase inhibitor, pH 7.4). […] The radio-activity was measured by a scintillation counter.
# [1] = target: T2, 5-HT transport protein (SERT) (Rattus norvegicus, UniProt P31652); test: Screening: competitive binding test to SERT using [3H]-citalopram; settings: [3H]-citalopram 1 nM; for inhibition at 10 µM / inhibition at 0.1 µM: read-out: Inhibition percent (I %), competitive binding to 5-HT transport protein (SERT)
# T2 construct: Preparation of Membrane Proteins in Rat Hippocampi; from tissue; host or cells: Wistar rat hippocampus
# T2 sequence (P31652 whole entry): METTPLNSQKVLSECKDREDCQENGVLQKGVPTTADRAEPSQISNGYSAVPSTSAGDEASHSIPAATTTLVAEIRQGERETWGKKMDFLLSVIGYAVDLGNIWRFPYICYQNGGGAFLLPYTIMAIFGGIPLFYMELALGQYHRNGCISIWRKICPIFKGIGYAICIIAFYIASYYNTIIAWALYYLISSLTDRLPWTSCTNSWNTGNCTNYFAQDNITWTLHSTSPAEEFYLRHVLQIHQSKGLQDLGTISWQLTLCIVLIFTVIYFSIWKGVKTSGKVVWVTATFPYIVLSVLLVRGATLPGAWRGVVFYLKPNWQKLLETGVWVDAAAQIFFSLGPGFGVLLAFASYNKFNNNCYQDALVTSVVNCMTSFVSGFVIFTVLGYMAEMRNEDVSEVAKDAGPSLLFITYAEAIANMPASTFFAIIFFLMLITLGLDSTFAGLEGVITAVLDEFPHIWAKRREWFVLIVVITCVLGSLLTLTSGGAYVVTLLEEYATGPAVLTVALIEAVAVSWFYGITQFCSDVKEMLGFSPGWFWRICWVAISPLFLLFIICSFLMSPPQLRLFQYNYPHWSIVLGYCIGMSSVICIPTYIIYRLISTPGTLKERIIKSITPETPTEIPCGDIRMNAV
# Method: The homogenate was centrifuged under 1000×g for 10 minutes and the supernatant was then centrifuged under 39000×g for 10 minutes. The precipitate was collected, and resuspended with 10 times volume of Tris-HCl buffer solution (pH 7.4) relative to the original weight, then centrifuged under 39000×g for 10 minutes. The precipitate was washed with the same buffer solution, centrifuged under 39000×g for 10 minutes and the precipitate was suspended with the above buffer solution. After sub-packaged (the whole operation procedures were performed under ice bath), the product was stored at −80° C. The protein concentration was measured by Lowrry method.
# mice [2] = test: Forced swim test in mice; assay type: in vivo; settings: 40 mg/kg p.o., acute, 1 h before test
# Method: 2.1.1 Forced Swim Test in Mice
# Forced swim test in mice is an acute behavioral despair model established by Porsolt, et al.
# (1) Experimental device: a glass cylinder (diameter 13 cm, height 24 cm, containing 10 cm of water maintained at 25).
# (2) Experimental method: Male Kunming mice weighing 20-25 g. The mice were gently put in the water 1 h after intragastrically drug administration, and then the duration of immobility in the last 4 min of total 6 min test was recorded.
# mice [3] = test: Hole board test in mice; assay type: in vivo; settings: 10 mg/kg p.o., long-term (23 days)
# Method: Hole board test, an animal model of anxiety established by Boissie, et al (1962), was performed in mice.
# 1) Experimental device: a transparent Perspex box (40×40×27 cm) which had four holes (3 cm in diameter, 1.8 cm in depth) in the floor. The distance of each hole center to its closest wall is 10 cm.
# 2) Experimental method: Male Kunming mice weighing 20-25 g. The mice were intragastrically administered with YL-0911 or vehicle (distilled water). After 23 days, the mice were placed at center of the hole board with their backs facing to the observer. A head dip was scored if the animal's head dipped into the hole at least up to eye level The latency to the first head-dip, the number of head-dips and the time spent in head-dipping were recorded for 5 min.
# mice [4] = test: Tail suspension test in mice; assay type: in vivo; settings: 30 mg/kg p.o., acute, 1 h before test
# From the text: 2.1.2 Tail Suspension Test in Mice
# Tail suspension test in mice is an acute behavioral despair model established by Stem, et al. (1985).
# 1) Experimental device: an experimental frame with spacing boards which dividing the experimental frame into 2 experimental chambers (20×25×30 cm). A clamp is mounted on a through cross rod in the chamber for clamping mice tail so as to suspend the mice.
# 2) Experimental method: Male Kunming mice weighing 20-25 g. The mice were intragastrically administered with YL-0911 or vehicle (distilled water). After 1 h, wrap adhesive tape around the mouse's tail in position three quarters of the distance from the base of the tail and then suspend the animals by passing the suspension hook through the adhesive tape 5 cm above the table. The duration of immobility in the last 4 min of total 6 min test was recorded.
SMILES,inhibition at 10 µM (5-HT1A receptor; compound 10^-5 mol/L) [%],inhibition at 0.1 µM (5-HT1A receptor; compound 10^-7 mol/L) [%],"Inhibition percent (I %), competitive binding to 5-HT1A receptor (5-HT1A receptor; compound 10^-5 mol/L) [%]","Inhibition percent (I %), competitive binding to 5-HT1A receptor (5-HT1A receptor; compound 10^-7 mol/L) [%]",other results
"O=c1ccccn1CC1(O)CCN(Cc2ccc(F)cc2)CC1 [Compound 3, 1-{[1-(4-fluorobenzyl)-4-hydroxypiperidin-4-yl]-methyl}-pyridin-2(1H)-one]",100,10,–,–,–
"Cc1ccn(CC2(O)CCN(Cc3ccccc3F)CC2)c(=O)c1 [Compound 10, 1-{[1-(2-fluorobenzyl)-4-hydroxypiperidin-4-yl]-methyl}-4-methylpyridin-2(M)-one]",–,–,76,37,–
"Cc1ccn(CC2(O)CCN(Cc3ccccc3)CC2)c(=O)c1 [Compound 9, 1-[(1-benzyl-4-hydroxypiperidin-4-yl)-methyl]-4-methylpyridin-2(M)-one]",–,–,100,25,–
"O=c1ccc(Br)cn1CC1(O)CCN(Cc2ccccc2)CC1 [Compound 5, 5-bromo-1-[(1-benzyl-4-hydroxypiperidin-4-yl)-methyl]-pyridin-2(1H)-one]",94,62,–,–,inhibition at 10 µM ([1]; compound 10^-5 mol/L): 100%; inhibition at 0.1 µM ([1]; compound 10^-7 mol/L): 77%
"O=c1ccccn1CC1(O)CCN(Cc2ccccc2F)CC1 [Compound 2, 1-{[1-(2-fluorobenzyl)-4-hydroxypiperidin-4-yl]-methyl}-pyridin-2(1H)-one]",100,58,–,–,inhibition at 10 µM ([1]; compound 10^-5 mol/L): 100%; inhibition at 0.1 µM ([1]; compound 10^-7 mol/L): 50%
"Cc1ccn(CC2(O)CCN(Cc3ccc(F)cc3)CC2)c(=O)c1 [Compound 11, 1-{[1-(4-fluorobenzyl)-4-hydroxypiperidin-4-yl]-methyl}-4-methylpyridin-2(M)-one]",–,–,57,14,–
"Cc1ccn(CC2(O)CCN(Cc3ccc(F)cc3F)CC2)c(=O)c1 [Compound 12, 1-{[1-(2,4-difluorobenzyl)-4-hydroxypiperidin-4-yl]-methyl}-4-methylpyridin-2(M)-one]",–,–,61,30,–
"CN(C)CCCN1c2ccccc2CCc2ccccc21 [Imipramine, reference compound]",–,–,–,–,"Immobility time (s), forced swim test (mice [2]): 88.0 ± 58.2 s"
"O=c1ccccn1CC1(O)CCN(Cc2ccc(F)cc2F)CC1 [Compound 4, 1-{[1-(2,4-difluorobenzyl)-4-hydroxypiperidin-4-yl]-methyl}-pyridin-2(1H)-p-one]",–,–,100,57,"Inhibition percent (I %), competitive binding to 5-HT transport protein (SERT) ([1]; compound 10^-5 mol/L): 100%; Inhibition percent (I %), competitive binding to 5-HT transport protein (SERT) ([1]; compound 10^-7 mol/L): 58%"
"O=c1ccc(Br)cn1CC1(O)CCN(Cc2ccc(F)cc2)CC1 [Compound 7, 5-bromo-1-{[1-(4-fluorobenzyl)-4-hydroxypiperidin-4-yl]-methyl}-pyridin-2(M)-one]",–,–,59,2,–
"O=c1ccc(Br)cn1CC1(O)CCN(Cc2ccc(F)cc2F)CC1 [Compound 8, 5-bromo-1-{[1-(2,4-fluorobenzyl)-4-hydroxypiperidin-4-yl]-methyl}-pyridin-2(M)-one]",–,–,42,19,–
"O=c1ccc(Br)cn1CC1(O)CCN(Cc2ccccc2F)CC1 [Compound 6, 5-bromo-1-{[1-(2-fluorobenzyl)-4-hydroxypiperidin-4-yl]-methyl}-pyridin-2(1H)-one]",100,74,–,–,inhibition at 10 µM ([1]; compound 10^-5 mol/L): 87%; inhibition at 0.1 µM ([1]; compound 10^-7 mol/L): 44%
"CNCCC(Oc1ccc(C(F)(F)F)cc1)c1ccccc1 (centres unmarked) [Fluoxetine, fluoxetine, reference compound]",–,–,–,–,"the latency to the first head-dip (mice [3]): 42.70 ± 9.43 s; Number of Head dips (mice [3]; 5 min): 9.60 ± 1.49; Time of head dipping (mice [3]; 5 min): 6.31 ± 1.03 s; Immobility time (s), tail suspension test (mice [4]): 56.2 ± 41.7 s"

# From patent publication US8921563B2, “1-[(4-hydroxypiperidin-4-yl)methyl]pyridin-2(1H)-one derivatives, preparation methods and uses thereof” (Institue of Pharmacology and Toxicology Academy of Military …, priority 2010, dated 2014)
